Data on one compound can be found in US20170029383A1, “Diaminotriazine Derivatives as Herbicides” (BASF SE, priority 2014, published 2017).

Common to all, as to assay: greenhouse experiment, pre-emergence treatment
Holding throughout (settings): pre-emergence method, application rate 0.500 kg/ha; scale from 0 to 100

For test [1], the system named is ABUTH. Type of test: in vivo, Abutilon theophrasti. An excerpt:
(§1) The seeds of the test plants were sown separately for each species. For the pre-emergence treatment, the active ingredients, which had been suspended or emulsified in water, were applied directly after sowing by means of finely distributing nozzles. The containers were irrigated gently to promote germination and growth and subsequently covered with transparent plastic hoods until the plants had rooted. This cover caused uniform germination of the test plants, unless this had been impaired by the active ingredients. Depending on the species, the plants were kept at 10-25° C. or 20-35° C., respectively. The test period extended over 2 to 4 weeks. During this time, the plants were tended, and their response to the individual treatments was evaluated. Evaluation was carried out using a scale from 0 to 100. 100 means no emergence of the plants, or complete destruction of at least the aerial moieties, and 0 means no damage, or normal course of growth. A moderate herbicidal activity is given at values of at least 60, a good herbicidal activity is given at values of at least 70, and a very good herbicidal activity is given at values of at least 85. The plants used in the greenhouse experiments were of the following species: [table]

Test [2] deals with AMARE. Type of test: in vivo, Amaranthus retroflexus.
Text: as §1

Test [3] concerns SETFA. Type of test: in vivo, Setaria faberi.
Text: as §1

For `CC(C)Oc1cccc(F)c1Nc1nc(N)nc(C(C)(C)F)n1` [Example 1, N2-(2-fluoro-6-isopropoxy-phenyl)-6-(1-fluoro-1-methyl-ethyl)-1,3,5-triazine-2,4-diamine], the “herbicidal activity against ABUTH” value in test [1] is on record as “very good (a very good herbicidal activity is given at values of at least 85)”. Further, the “herbicidal activity against AMARE” value in test [2] was “very good (a very good herbicidal activity is given at values of at least 85)”. In test [3], the “herbicidal activity against SETFA” value is listed as “very good (a very good herbicidal activity is given at values of at least 85)”.
